In this experiment the test system is HCT-116 Firefly-luciferase reporter cells. The experiment can be described thus: Cellular c-MYC Reporter Assay. The experiment is classed as cell-based. The settings on record: Homo sapiens; untitled table following Table 8a; HCT-116 Firefly-luciferase reporter cells, 24 h; read-out: pIC50 (converted). The procedure, abridged:
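Compound exposure lasted 24 h at 37 °C, 5% CO2, in complete McCoy's 5A medium containing 0.2% DMSO, beginning 4–6 h post-seeding (5e4 cells/mL). Firefly luciferase signal measured by luminescence after 10 min ONE-Glo development at room temperature.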
In general terms: In a reporter assay the amount or activity of a reporter protein is the signal.
With `O=C(c1ccc(-n2nnc3cccnc32)cc1F)N(c1nccc2sc(/C=C/CO)cc12)[C@@H]1CCCNC1` [Example 158, (R,E)-4-(3H-[1,2,3]triazolo[4,5-b]pyridin-3-yl)-2-fluoro-N-(2-(3-hydroxyprop-1-en-1-yl)thieno[3,2-c]pyridin-4-yl)-N-(piperidin-3-yl)benzamide], the IC50 was 0.692 µM. Take `O=C(c1ccc(-n2nnc3cccnc32)cc1F)N(c1nccc2sc(C3=CCNCC3)cc12)[C@@H]1CCCNC1` [Example 159, (R)-4-(3H-[1,2,3]triazolo[4,5-b]pyridin-3-yl)-2-fluoro-N-(piperidin-3-yl)-N-(2-(1,2,3,6-tetrahydropyridin-4-yl)thieno[3,2-c]pyridin-4-yl)benzamide]: the IC50 was 2.63 µM.

With `O=C(c1ccc(-n2nnc3cccnc32)cc1F)N(c1nccc2sc(-c3cn[nH]c3)cc12)[C@@H]1CCCNC1` [Example 160, (R)—N-(2-(1H-pyrazol-4-yl)thieno[3,2-c]pyridin-4-yl)-4-(3H-[1,2,3]triazolo[4,5-b]pyridin-3-yl)-2-fluoro-N-(piperidin-3-yl)benzamide], the IC50 is 0.447 µM. Consider `O=C(c1ccc(-n2nnc3cccnc32)cc1F)N(c1nccc2sc(-c3ccncc3)cc12)[C@@H]1CCCNC1` [Example 161, (R)-4-(3H-[1,2,3]triazolo[4,5-b]pyridin-3-yl)-2-fluoro-N-(piperidin-3-yl)-N-(2-(pyridin-4-yl)thieno[3,2-c]pyridin-4-yl)benzamide], for which the IC50 is 0.417 µM.

On to `O=C(c1ccc(-n2nnc3cccnc32)cc1F)N(c1nccc2sc(Br)cc12)[C@@H]1CCCNC1` [Example 162, (R)-4-(3H-[1,2,3]triazolo[4,5-b]pyridin-3-yl)-N-(2-bromothieno[3,2-c]pyridin-4-yl)-2-fluoro-N-(piperidin-3-yl)benzamide], for which the IC50 is 0.776 µM.

For `O=C(c1ccc(-n2nnc3cccnc32)cc1F)N(c1nccc2cccc(/C=C/c3cccnc3)c12)[C@@H]1CCCNC1` [Example 163, (R,E)-4-(3H-[1,2,3]triazolo[4,5-b]pyridin-3-yl)-2-fluoro-N-(piperidin-3-yl)-N-(8-(2-(pyridin-3-yl)vinyl)isoquinolin-1-yl)benzamide], the IC50 is 0.537 µM. Then `N#Cc1cccc2ccnc(N(C(=O)c3ccc(-n4nnc5cccnc54)cc3F)[C@@H]3CCCNC3)c12` [Example 164, (R)-4-(3H-[1,2,3]triazolo[4,5-b]pyridin-3-yl)-N-(8-cyanoisoquinolin-1-yl)-2-fluoro-N-(piperidin-3-yl)benzamide], with 0.0977 µM. With `O=C(c1ccc(-n2nnc3cccnc32)cc1F)N(c1nccc2cccc(/C=C/CO)c12)[C@@H]1CCCNC1` [Example 165, (R,E)-4-(3H-[1,2,3]triazolo[4,5-b]pyridin-3-yl)-2-fluoro-N-(8-(3-hydroxyprop-1-en-1-yl)isoquinolin-1-yl)-N-(piperidin-3-yl)benzamide] the figure was 0.17 µM; with `O=C(c1ccc(-n2nnc3cccnc32)cc1F)N(c1nccc2cccc(/C=C/CCO)c12)[C@@H]1CCCNC1` [Example 166, (R,E)-4-(3H-[1,2,3]triazolo[4,5-b]pyridin-3-yl)-2-fluoro-N-(8-(4-hydroxybut-1-en-1-yl)isoquinolin-1-yl)-N-(piperidin-3-yl)benzamide], 0.141 µM. With `COC(=O)c1cccnc1N(C(=O)c1ccc(-n2nnc3cccnc32)cc1F)[C@@H]1CCCNC1` [Example 167, methyl (R)-2-(4-(3H-[1,2,3]triazolo[4,5-b]pyridin-3-yl)-2-fluoro-N-(piperidin-3-yl)benzamido)nicotinate] the figure was 0.661 µM; with `Cc1cccc2ccnc(N(C(=O)c3ccc(CO)cc3F)[C@@H]3CCCNC3)c12` [Example 168, (R)-2-fluoro-4-(hydroxymethyl)-N-(8-methylisoquinolin-1-yl)-N-(piperidin-3-yl)benzamide], 5.25 µM. With `Cc1cccc2ccnc(N(C(=O)c3ccc(Nc4nc5ccccn5n4)cc3F)[C@@H]3CCCNC3)c12` [Example 169, (R)-4-([1,2,4]triazolo[1,5-a]pyridin-2-ylamino)-2-fluoro-N-(8-methylisoquinolin-1-yl)-N-(piperidin-3-yl)benzamide], the IC50 was 0.316 µM. In the case of `Cc1cccc2ccnc(N(C(=O)c3ccc(-n4nnc5ccc(C(N)=O)nc54)cc3F)[C@@H]3CCCNC3)c12` [Example 170, (R)-3-(3-fluoro-4-((8-methylisoquinolin-1-yl)(piperidin-3-yl)carbamoyl)phenyl)-3H-[1,2,3]triazolo[4,5-b]pyridine-5-carboxamide], the IC50 is 0.0562 µM.

In the case of `Cc1cccc2ccnc(N(C(=O)c3ccc(-n4nnc5ccc(-c6ccccc6)nc54)cc3F)[C@@H]3CCCNC3)c12` [Example 171, (R)-2-fluoro-N-(8-methylisoquinolin-1-yl)-4-(5-phenyl-3H-[1,2,3]triazolo[4,5-b]pyridin-3-yl)-N-(piperidin-3-yl)benzamideamide], the IC50 was 0.288 µM. For `Cc1cccc2ccnc(N(C(=O)c3ccc(N4CC(C)NC4=O)cc3F)[C@@H]3CCCNC3)c12` (stereo partly drawn) [Example 172, 2-fluoro-4-(4-methyl-2-oxoimidazolidin-1-yl)-N-(8-methylisoquinolin-1-yl)-N—((R)-piperidin-3-yl)benzamide], the IC50 was 6.03 µM.

As for `Cc1cccc2ccnc(N(C(=O)N3CCC(c4nn(C)c(=O)o4)CC3)[C@@H]3CCCNC3)c12` [Example 174, (R)-4-(4-methyl-5-oxo-4,5-dihydro-1,3,4-oxadiazol-2-yl)-N-(8 methylisoquinolin-1-yl)-N-(piperidin-3-yl)piperidine-1-carboxamide], the IC50 is 3.55 µM. In the case of `Cc1cccc2ccnc(N(C(=O)c3ccc(-n4nnc5cccnc54)cc3F)[C@H]3CNCC(F)(F)C3)c12` [Example 175, (R)-4-(3H-[1,2,3]triazolo[4,5-b]pyridin-3-yl)-N-(5,5-difluoropiperidin-3-yl)-2-fluoro-N-(8-methylisoquinolin-1-yl)benzamide], the IC50 is 9.33 µM. Turning to `O=C(c1ccc(-n2nnc3cccnc32)cc1F)N(c1ncccc1-c1cn[nH]c1)[C@@H]1CCCNC1` [Example 176, (R)—N-(3-(1H-pyrazol-4-yl)pyridin-2-yl)-4-(3H-[1,2,3]triazolo[4,5-b]pyridin-3-yl)-2-fluoro-N-(piperidin-3-yl)benzamide], the IC50 is 0.933 µM.

Turning to `O=C(c1ccc(-n2nnc3cccnc32)cc1F)N(c1ncccc1-c1ccsc1)[C@@H]1CCCNC1` [Example 177, (R)-4-(3H-[1,2,3]triazolo[4,5-b]pyridin-3-yl)-2-fluoro-N-(piperidin-3-yl)-N-(3-(thiophen-3-yl)pyridin-2-yl)benzamide], the IC50 is 0.355 µM. Take `Cc1nnn(-c2ccc(C(=O)N(c3nccc4cccc(C)c34)[C@@H]3CCCNC3)cc2)n1` [Example 179, (R)-4-(5-methyl-2H-tetrazol-2-yl)-N-(8-methylisoquinolin-1-yl)-N-(piperidin-3-yl)benzamide]: the IC50 is 0.0724 µM. As for `Cc1ccnc(N(C)c2ccc(C(=O)N(c3nccc4cccc(C)c34)[C@@H]3CCCNC3)c(F)c2)n1` [Example 180, (R)-2-fluoro-4-(methyl (4-methylpyrimidin-2-yl)amino)-N-(8-methylisoquinolin-1-yl)-N-(piperidin-3-yl)benzamide], the IC50 was 3.39 µM. Then `Cc1cc(C2CCN(C(=O)N(c3nccc4cccc(C)c34)[C@@H]3CCCCNC3)CC2)on1` [Example 181, (R)—N-(azepan-3-yl)-N-(8-methylisoquinolin-1-yl)-4-(3-methylisoxazol-5-yl)piperidine-1-carboxamide], with 11 µM.

For `Cc1nccnc1-c1ccc(C(=O)N(c2nccc3cccc(Cl)c23)[C@@H]2CCCNC2)c(F)c1` [Example 182, (R)—N-(8-chloroisoquinolin-1-yl)-2-fluoro-4-(3-methylpyrazin-2-yl)-N-(piperidin-3-yl)benzamide], the IC50 is 0.891 µM. For `Cc1cccc2ccnc(N(C(=O)c3ccc(Nc4ncccn4)cn3)[C@@H]3CCCNC3)c12` [Example 184, (R)—N-(8-methylisoquinolin-1-yl)-N-(piperidin-3-yl)-5-(pyrimidin-2-ylamino) picolinamide], the IC50 is 1.55 µM. As to `Cc1cccc2ccnc(N(C(=O)c3ccc(Nc4ncccn4)cc3F)[C@@H]3CCCCNC3)c12` [Example 185, (R)—N-(azepan-3-yl)-2-fluoro-N-(8-methylisoquinolin-1-yl)-4-(pyrimidin-2-ylamino)benzamide], the IC50 is 3.31 µM. Regarding `Cc1cnc(Nc2ccc(C(=O)N(c3nccc4cccc(C)c34)[C@@H]3CCCNC3)c(F)c2)nc1` [Example 186, (R)-2-fluoro-N-(8-methylisoquinolin-1-yl)-4-((5-methylpyrimidin-2-yl)amino)-N-(piperidin-3-yl)benzamide], the IC50 was 0.2 µM.

`COc1ccc2nnn(-c3ccc(C(=O)N(c4nccc5cccc(C)c45)[C@@H]4CCCNC4)c(F)c3)c2n1` [Example 187, (R)-2-fluoro-4-(5-methoxy-3H-[1,2,3]triazolo[4,5-b]pyridin-3-yl)-N-(8-methylisoquinolin-1-yl)-N-(piperidin-3-yl)benzamide]: the IC50 is 0.0501 µM. As for `Cc1cccc2ccnc(N(C(=O)N3CCC(Oc4ccccc4)CC3)[C@@H]3CCCNC3)c12` [Example 189, (R)—N-(8-methylisoquinolin-1-yl)-4-phenoxy-N-(piperidin-3-yl)-1-carboxamide], the IC50 is 5.62 µM. As for `CC1(c2ccno2)CCN(C(=O)N(c2cc3ccccc3cn2)[C@@H]2CCCNC2)CC1` [Example 190, (R)—N-(isoquinolin-3-yl)-4-(isoxazol-5-yl)-4-methyl-N-(piperidin-3-yl)piperidine-1-carboxamide], the IC50 was 5.89 µM. `Cc1cccc2ccnc(N(C(=O)c3ccc(-n4nnc5ccc(C#N)nc54)cc3F)[C@@H]3CCCNC3)c12` [Example 191, (R)-4-(5-cyano-3H-[1,2,3]triazolo[4,5-b]pyridin-3-yl)-2-fluoro-N-(8-methylisoquinolin-1-yl)-N-(piperidin-3-yl)benzamide]: the IC50 is 0.0107 µM.

The values above are taken from patent US20240400555A1 (Initial Therapeutics, Inc., priority 2023, published 2024).
